In ChEMBL document CHEMBL4052608, “Hes1-Binding Compounds Isolated by Target Protein Oriented Natural Products Isolation (TPO-NAPI)” (2017) one finds Activity data, which are given here for 3 compounds.

The source made the active and inactive calls. The calls are words filed in the database; no cut-off is given here.

Assay [1] concerns MEB5. Description: Induction of neuronal differention in mouse MEB5 neurospheres at 100 uM after 4 days by DAPI dye-based fluorescence confocal laser scaning microscopic analysis. The class given is functional, cell-based.
Assay [2] relates to MEB5. The experiment in a line: Increase in neuronal differention in mouse MEB5 neurospheres at 10 uM after 4 days by DAPI dye-based fluorescence confocal laser scaning microscopic analysis. The class given is functional.
The test system of assay [3] is MEB5. The experiment in a line: Induction of neuronal differention in mouse MEB5 neurospheres at 10 uM after 4 days by DAPI dye-based fluorescence confocal laser scaning microscopic analysis. The class given is functional.
Assay [4] deals with T1, Transcription factor HES-1 (Rattus norvegicus) (UniProt Q04666).
T1 sequence (whole entry): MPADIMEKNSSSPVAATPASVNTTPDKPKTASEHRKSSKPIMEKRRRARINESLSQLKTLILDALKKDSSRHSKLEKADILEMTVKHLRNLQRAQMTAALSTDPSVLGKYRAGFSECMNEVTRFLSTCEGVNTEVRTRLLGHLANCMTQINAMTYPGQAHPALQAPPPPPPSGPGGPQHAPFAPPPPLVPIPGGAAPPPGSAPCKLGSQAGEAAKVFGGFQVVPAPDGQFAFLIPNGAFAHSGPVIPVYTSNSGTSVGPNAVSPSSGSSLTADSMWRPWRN
Description: Binding affinity to rat GST-tagged truncated HES1 (151 to 281 residues) expressed in Escherichia coli JM109 after 2 hrs by HPLC based bead assay.

In assay [5] the target is T1, Transcription factor HES-1 (Rattus norvegicus). The experiment in a line: Binding affinity to rat GST-tagged truncated HES1 (1 to 95 residues) expressed in Escherichia coli JM109 after 2 hrs by HPLC based bead assay.
Assay [6] has the same target. The experiment in a line: Binding affinity to rat GST-tagged truncated HES1 (47 to 281 residues) expressed in Escherichia coli JM109 after 2 hrs by HPLC based bead assay.
Assay [7] has the same target. The experiment in a line: Binding affinity to rat GST-tagged truncated HES1 (47 to 156 residues) expressed in Escherichia coli JM109 after 2 hrs by HPLC based bead assay.

As to `CCCC(CCC)C(=O)O`, in the assay on MEB5 [1], the outcome was Active.

For the compound `C/C=C/C=C/C=C/[C@@H]1NCC[C@@H](O)[C@H]1C`, the Activity amounted to 34% in the assay on MEB5 [2] and 35% in the assay with MEB5 [3].

As to `CC1=C\C=C\C=C\CC(C)NC(=O)/C=C/C=C/C=C/C(C)C(O)C(O)C(O)CC(O)/C=C\C=C\1` (centres undefined), the result in assay [4], in assay [5], in assay [6] and in assay [7] was Active. The Activity in the assay with MEB5 [2] is reported as 17%; in the assay with MEB5 [3] it was 30%.
